# Target: T1, hTRPC1/hTRPC5 (Homo sapiens, UniProt Q9UL62)
# T1 construct: The cDNAs for various full-length ion channels were subcloned into pcDNA5/TO; expressed in transfected cells; host or cells: heterologous co-expression
# Test: Whole-cell manual patch clamp
# Assay type: cell-based
# T1 sequence (Q9UL62 whole entry): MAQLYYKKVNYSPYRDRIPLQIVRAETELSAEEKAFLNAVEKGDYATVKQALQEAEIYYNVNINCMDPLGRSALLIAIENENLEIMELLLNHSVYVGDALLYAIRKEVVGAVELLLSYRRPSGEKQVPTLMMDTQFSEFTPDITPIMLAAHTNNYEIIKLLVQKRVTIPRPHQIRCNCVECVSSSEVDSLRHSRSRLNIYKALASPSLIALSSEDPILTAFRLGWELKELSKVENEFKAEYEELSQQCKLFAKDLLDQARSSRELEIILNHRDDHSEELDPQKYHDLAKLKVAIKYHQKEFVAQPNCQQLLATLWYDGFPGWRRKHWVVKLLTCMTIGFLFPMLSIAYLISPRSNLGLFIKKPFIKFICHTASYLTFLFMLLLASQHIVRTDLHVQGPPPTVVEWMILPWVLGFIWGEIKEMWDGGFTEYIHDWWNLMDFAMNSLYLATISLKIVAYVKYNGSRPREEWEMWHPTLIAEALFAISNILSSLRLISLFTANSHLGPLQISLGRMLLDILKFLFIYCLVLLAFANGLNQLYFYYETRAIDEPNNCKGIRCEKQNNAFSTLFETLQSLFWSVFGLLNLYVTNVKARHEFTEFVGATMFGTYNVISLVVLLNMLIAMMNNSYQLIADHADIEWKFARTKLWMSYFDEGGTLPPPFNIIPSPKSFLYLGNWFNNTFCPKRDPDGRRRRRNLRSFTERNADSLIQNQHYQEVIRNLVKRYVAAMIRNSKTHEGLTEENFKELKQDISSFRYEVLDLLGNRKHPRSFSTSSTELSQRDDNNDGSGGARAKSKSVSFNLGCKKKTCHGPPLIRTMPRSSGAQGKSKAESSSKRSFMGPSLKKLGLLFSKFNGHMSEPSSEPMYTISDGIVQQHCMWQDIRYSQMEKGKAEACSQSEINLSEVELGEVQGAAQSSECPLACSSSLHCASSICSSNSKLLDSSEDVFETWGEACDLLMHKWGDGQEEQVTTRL
# T1 sequence (P48995 whole entry partner): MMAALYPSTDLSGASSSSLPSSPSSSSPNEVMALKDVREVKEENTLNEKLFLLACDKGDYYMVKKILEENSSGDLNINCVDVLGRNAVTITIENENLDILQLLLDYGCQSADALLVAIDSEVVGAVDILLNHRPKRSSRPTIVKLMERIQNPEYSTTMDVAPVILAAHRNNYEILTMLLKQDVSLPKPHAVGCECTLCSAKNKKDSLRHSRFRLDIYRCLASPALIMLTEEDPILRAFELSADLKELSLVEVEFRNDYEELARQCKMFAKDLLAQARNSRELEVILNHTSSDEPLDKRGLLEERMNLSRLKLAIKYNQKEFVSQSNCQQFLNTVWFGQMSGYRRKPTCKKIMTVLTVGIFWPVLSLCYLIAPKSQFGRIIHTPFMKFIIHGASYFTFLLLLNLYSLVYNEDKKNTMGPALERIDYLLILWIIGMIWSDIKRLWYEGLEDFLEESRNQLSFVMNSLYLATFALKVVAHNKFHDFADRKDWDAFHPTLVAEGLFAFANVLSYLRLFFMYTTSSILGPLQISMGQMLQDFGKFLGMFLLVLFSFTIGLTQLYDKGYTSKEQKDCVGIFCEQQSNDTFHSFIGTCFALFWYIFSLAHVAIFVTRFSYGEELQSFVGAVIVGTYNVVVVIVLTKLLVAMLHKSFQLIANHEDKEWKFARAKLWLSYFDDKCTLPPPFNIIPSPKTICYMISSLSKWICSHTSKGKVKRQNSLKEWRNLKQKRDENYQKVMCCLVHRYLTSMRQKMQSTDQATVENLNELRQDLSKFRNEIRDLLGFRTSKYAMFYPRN
compound,measurement,setting,value
Cn1c(=O)n(CCCO)c(=O)c2c1nc(Oc1cccc(OC(F)(F)F)c1)n2Cc1ccc(Cl)cc1 [HC-608],IC50,20 μM carbachol/M1R,~4.7 nM
same,IC50,La3+ (80 μM),~1.4 nM

# Reference: PMC5791972 (PLoS ONE, 2018)
